Measured values taken from patent US11564964B2, “Compositions and methods for the treatment of coronavirus infection” (priority 2021, dated 2023).
Converted amounts (≈) assume the structure as drawn.

Columns and labels:
[1] = system: SARS-CoV-2 (hCoV-19/Egypt/NRC-3/2020 isolate); details: for in vitro SARS-CoV-2 testing (activity in words): SARS CoV-2 infected Vero E6 cells; for activity against SARS CoV-2 (in words): (100 μg/mL)
[2] = MTT cytotoxicity assay; assay type: cell-based; details: African green monkey, Vero E6 cells, read-out: cytotoxicity IC50 against Vero E6 cells
Experimental: Vero-E6 cells with the previously reported (MTT) method^34 were used to test the cytotoxic activity of the test compounds and extracts. In brief, the cells were plated in 96-well plates and incubated for 24 h at 37° C. in 5% CO2 (100 μL/well at a density of 3×10^5 cells/mL). The cells were then treated with different concentrations of extracts/the tested compounds in triplicates. The supernatant was discarded after another 24 h, and cell monolayers were washed three times with sterile 1× PBS. MTT solution was added to each well and then incubated at 37° C. for 4 h. The produced formazan crystals were dissolved with 200 μL of acidified isopropanol (0.04 M HCl in absolute isopropanol=0.073 mL HCL in 50 mL isopropanol). Thereafter, the absorbance of formazan solutions was measured at λmax 540 nm using a multi-well plate reader. The following equation was applied to calculate the percentage of cytotoxicity compared to the untreated cells:
[formula] The produced plot of % cytotoxicity versus sample concentrations was then used to calculate the IC50s. Viral Inhibitory Concentration 50 (IC50) Determination

[3] = system: SARS-CoV-2 (hCoV-19/Egypt/NRC-3/2020 isolate); assay: microbe, parasite or virus in culture; details: Severe acute respiratory syndrome coronavirus 2, Vero C1008, read-out: IC50, inhibition of SARS CoV-2 viral replication
[4] = system: SARS-CoV-2 mRNA; assay: Quantitative real time measurement of SARS-CoV-2 mRNA expression (TaqMan RT-PCR) in infected Vero E6 cells; assay type: cell-based; details: different concentrations, 24 h and 48 h post treatment, normalized to infected untreated cells
Experimental: The RNA extraction of expressed SARS-CoV-2 mRNA in infected treated and untreated cell monolayers was performed using QlAamp Viral RNA Mini Kit according to manufacturer instructions. To assess the viral mRNA expression in infected/treated and infected/untreated Vero E6 cells, TaqMan Real-time RT-PCR assay was performed. Briefly, 100 ng of extracted RNA were mixed with TaqMan primers to quantify SARS-CoV-2 mRNA (targeting […]: HKU-ORF1b-nsp14F: 5′-[…]-3′ (SEQ ID NO: 1), HKU-ORF1b-nsp141P Taqman Probe: 5′-FAM-[…]-TAMRA-3′ (SEQ ID NO: 2), HKU-ORF1b-nsp14R: 5′-[…]-3′ (SEQ ID NO: 3) together with the other components of Verso 1-step RT-qPCR Kit plus Rox (Invitrogen) in recommended volumes (up to 50 μl reaction) and thermal protocol conditions.
To validate our in silico-derived hits, we evaluated their antiviral activity against the clinical SARS-CoV-2 viral isolate in Vero E6 cells. […] Afterwards, the SARS CoV-2 infected Vero E6 cells were incubated with each of the tested compounds at different concentrations. The antiviral activity was then evaluated by determining the viral copy numbers in the cell supernatant via qRT-PCR. […] The poor antiviral activity of other metabolites (>100 μg/mL) might be attributed to their high polarity that could hinder the permeability across the cell membrane^39.

## O=c1cc(-c2ccc(O)cc2)oc2cc(O[C@@H]3O[C@H](CO)[C@@H](O)[C@H](O)[C@H]3O)cc(O)c12 [apigenin 7-O-glucoside]
[1]
  in vitro SARS-CoV-2 testing (activity in words): inactive

## COc1ccc(C[C@H]2COC(=O)[C@@H]2Cc2ccc(O[C@@H]3O[C@H](CO)[C@@H](O)[C@H](O)[C@H]3O)c(OC)c2)cc1OC [arctiin]
[2]
  IC50 at 24 h: > 50 µg/mL
[1]
  in vitro SARS-CoV-2 testing (activity in words): inactive

## O=c1c(O[C@@H]2O[C@H](CO)[C@@H](O)[C@H](O)[C@H]2O)c(-c2ccc(O)cc2)oc2cc(O)cc(O)c12 [astragalin]
[2]
  IC50 at 24 h: > 50 µg/mL
[1]
  in vitro SARS-CoV-2 testing (activity in words): inactive

## C=C1C(=O)O[C@@H]2/C=C(\CO)CC/C=C(\C)C[C@H](OC(=O)C(=C)[C@@H](O)CO)[C@@H]12 [cnicin]
[3]
  IC50: 1.18 µg/mL (≈ 3.12 µM)
[4]
  inhibitory effect on the viral mRNA: significant viral mRNA inhibition
[1]; safety profile, Vero E6 / SARS CoV-2
  Si=CC50/IC50: 70.3

## O=c1cc(-c2ccc(O)c(O)c2)oc2cc(O)cc(O)c12 [luteolin]
[1]
  activity against SARS CoV-2 (in words): inactive

## COc1cc(C[C@H]2COC(=O)[C@]2(O)Cc2ccc(O[C@@H]3O[C@H](CO)[C@@H](O)[C@H](O)[C@H]3O)c(OC)c2)ccc1O [nortracheloside]
[1]
  in vitro SARS-CoV-2 testing (activity in words): inactive

## CC[C@H](CC[C@@H](C)[C@H]1CC[C@H]2[C@@H]3CC=C4C[C@@H](O[C@@H]5O[C@H](CO)[C@@H](O)[C@H](O)[C@H]5O)CC[C@]4(C)[C@H]3CC[C@]12C)C(C)C [sitogluside]
[1]
  activity against SARS CoV-2 (in words): inactive
